The values below are quoted from earlier work in patent US20180214453A1, “RIVAROXABAN PHARMACEUTICAL COMPOSITIONS” (INTERQUIM, S.A., priority 2015, published 2018).

For data set [1] the following is noted: according to WO05060940 A2, practically insoluble.
The conditions of data set [2]: CHMP assessment report for Xarelto, slightly soluble.

On to `O=C(NC[C@H]1CN(c2ccc(N3CCOCC3=O)cc2)C(=O)O1)c1ccc(Cl)s1` [Rivaroxaban, 5-chloro-N-({(5S)-2-oxo-3-[4-(3-oxomorpholin-4-yl)phenyl]-1,3-oxazolidin-5-yl}methyl)thiophene-2-carboxamide], for which the solubility in water result in data set [1] is “about 7 mg/L”. The “solubility in organic solvents” value in data set [2] was 1000 to 10000 µg/mL.
